Laboratory results from US20220135591A1, “HETEROCYCLIC COMPOUNDS AS INHIBITORS OF MONOACYLGLYCEROL LIPASE (MAGL)” (Hoffmann-La Roche Inc., priority 2019, published 2022).

Target: T1, MAGL (Homo sapiens, UniProt Q99685)
T1 sequence (Q99685 1-303): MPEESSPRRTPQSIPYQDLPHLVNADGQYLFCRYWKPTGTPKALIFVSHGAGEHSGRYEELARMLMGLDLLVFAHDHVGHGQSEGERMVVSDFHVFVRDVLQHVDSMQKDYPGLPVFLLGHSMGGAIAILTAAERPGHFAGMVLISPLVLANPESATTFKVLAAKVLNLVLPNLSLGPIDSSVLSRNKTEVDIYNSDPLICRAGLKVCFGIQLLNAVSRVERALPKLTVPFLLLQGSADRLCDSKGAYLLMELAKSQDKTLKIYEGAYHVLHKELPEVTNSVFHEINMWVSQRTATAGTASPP
Test: 2-AG assay: MAGL inhibitory activity by hydrolysis of 2-arachidonoylglycerol to arachidonic acid, mass spectrometry
Assay type: biochemical
Conditions: 2-AG assay (values marked [b])
Method: Alternatively, compounds were profiled for MAGL inhibitory activity by determining the enzymatic activity by following the hydrolysis of the natural substrate 2-arachidonoylglycerol (2-AG) resulting in arachidonic acid, which can be followed by mass spectrometry. This assay is hereinafter abbreviated “2-AG assay”.
The 2-AG assay was carried out in 384 well assay plates (PP, Greiner Cat #784201) in a total volume of 20 μL. Compound dilutions were made in 100% DMSO (VWR Chemicals 23500.297) in a polypropylene plate in 3-fold dilution steps to give a final concentration range in the assay from 12.5 μM to […]. 0.25 μL compound dilutions (100% DMSO) were added to 9 μL MAGL in assay buffer (50 mM TRIS (GIBCO, 15567-027), 1 mM EDTA (Fluka, 03690-100 mL), 0.01% (v/v) Tween. After shaking, the plate was incubated for 15 min at RT. To start the reaction, 10 μL 2-arachidonoylglycerol in assay buffer was added. The final concentrations in the assay was […] and 8 μM 2-arachidonoylglyerol. After shaking and 30 min incubation at RT, the reaction was quenched by the addition of 40 μL of ACN containing 4 μM of d8-arachidonic acid. The amount of arachidonic acid was traced by an online SPE system (Agilent Rapidfire) coupled to a triple quadrupole mass spectrometer (Agilent 6460). A C18 SPE cartridge (G9205A) was used in an ACN/water liquid setup. The mass spectrometer was operated in negative electrospray mode following the mass transitions 303.1→259.1 for arachidonic acid and 311.1→267.0 for d8-arachidonic acid. The activity of the compounds was calculated based on the ratio of intensities [arachidonic acid/d8-arachidonic acid].

| IC50 | Compound |
| --- | --- |
| 0.144 µM | O=C(c1ccc(-c2cn(CC(F)(F)F)nn2)cc1)N1CCN(c2nc3nc(Cl)ccc3o2)CC1 [Example 98, (4-(5-chlorooxazolo[4,5-b]pyridin-2-yl)piperazin-1-yl)(4-(1-(2,2,2-trifluoroethyl)-1H-1,2,3-triazol-4-yl)phenyl)methanone] |
| 0.523 µM | Cc1ccc2oc(N3CCN(C(=O)c4ccc(-c5cn(CC(F)(F)F)nn5)cc4)CC3)nc2n1 [Example 99, (4-(5-methyloxazolo[4,5-b]pyridin-2-yl)piperazin-1-yl)(4-(1-(2,2,2-trifluoroethyl)-1H-1,2,3-triazol-4-yl)phenyl)methanone] |
| 1.08 µM | Cc1ccc2oc(N3CCN(C(=O)c4ccc(-c5cn(CC6(C)COC6)nn5)cc4)CC3)nc2n1 [Example 100, (4-(5-methyloxazolo[4,5-b]pyridin-2-yl)piperazin-1-yl)(4-(1-((3-methyloxetan-3-yl)methyl)-1H-1,2,3-triazol-4-yl)phenyl)methanone] |
| 0.609 µM | CC1(Cn2cc(-c3ccc(C(=O)N4CCN(c5nc6nc(Cl)ccc6o5)CC4)cc3)nn2)COC1 [Example 101, (4-(5-chlorooxazolo[4,5-b]pyridin-2-yl)piperazin-1-yl)(4-(1-((3-methyloxetan-3-yl)methyl)-1H-1,2,3-triazol-4-yl)phenyl)methanone] |
| 0.009 µM | O=C(c1ccc(-c2noc(C34CC(C3)C4)n2)cc1)N1CCN(c2nc3nc(Cl)ccc3o2)CC1 [Example 105, [4-[5-(3-bicyclo[1.1.1]pentanyl)-1,2,4-oxadiazol-3-yl]phenyl]-[4-(5-chlorooxazolo[4,5-b]pyridin-2-yl)piperazin-1-yl]methanone] |
| 0.036 µM | Cc1ccc2oc(N3CCN(C(=O)c4ccc(-c5ncn(C(C)(C)C)n5)c(F)c4)CC3)nc2n1 [Example 106, [4-(1-tert-butyl-1,2,4-triazol-3-yl)-3-fluorophenyl]-[4-(5-methyl-[1,3]oxazolo[4,5-b]pyridin-2-yl)piperazin-1-yl]methanone] |
| 0.154 µM | Cc1ccc2oc(N3CCN(C(=O)c4ccc(-c5cn(C6(C(F)(F)F)CC6)nn5)cc4)CC3)nc2n1 [Example 108, [4-(5-methyl-[1,3]oxazolo[4,5-b]pyridin-2-yl)piperazin-1-yl]-[4-[1-[1-(trifluoromethyl)cyclopropyl]triazol-4-yl]phenyl]methanone] |
| 2.52 µM | Cc1ccc2oc(N3CCN(C(=O)c4ccc(-c5cn(C6(C)COC6)nn5)cc4)CC3)nc2n1 [Example 109, [4-(5-methyl-[1,3]oxazolo[4,5-b]pyridin-2-yl)piperazin-1-yl]-[4-[1-(3-methyloxetan-3-yl)triazol-4-yl]phenyl]methanone] |
| 0.859 µM | CC1(n2cc(-c3ccc(C(=O)N4CCN(c5nc6nc(Cl)ccc6o5)CC4)cc3)nn2)COC1 [Example 110, [4-(5-chloro-[1,3]oxazolo[4,5-b]pyridin-2-yl)piperazin-1-yl]-[4-[1-(3-methyloxetan-3-yl)triazol-4-yl]phenyl]methanone] |
| 4.27 µM | Cc1ccc2oc(N3CCN(C(=O)c4ccc(-c5cn(CC6COC6)nn5)cc4)CC3)nc2n1 [Example 113, [4-(5-methyl-[1,3]oxazolo[4,5-b]pyridin-2-yl)piperazin-1-yl]-[4-[1-(oxetan-3-ylmethyl)triazol-4-yl]phenyl]methanone] |
| 5.55 µM | O=C(c1ccc(-c2cn(CC3COC3)nn2)cc1)N1CCN(c2nc3nc(Cl)ccc3o2)CC1 [Example 114, [4-(5-chloro-[1,3]oxazolo[4,5-b]pyridin-2-yl)piperazin-1-yl]-[4-[1-(oxetan-3-ylmethyl)triazol-4-yl]phenyl]methanone] |
| 0.14 µM | Cn1nc(C(C)(C)C)nc1-c1ccc(C(=O)N2CCN(c3nc4nc(Cl)ccc4o3)CC2)cc1 [Example 119, [4-(5-tert-butyl-2-methyl-1,2,4-triazol-3-yl)phenyl]-[4-(5-chlorooxazolo[4,5-b]pyridin-2-yl)piperazin-1-yl]methanone] |
| 0.121 µM | O=C(c1ccc(-c2cn(CC3(F)CC3)nn2)cc1)N1CCN(c2nc3nc(Cl)ccc3o2)CC1 [Example 125, (4-(5-chlorooxazolo[4,5-b]pyridin-2-yl)piperazin-1-yl)(4-(1-((1-fluorocyclopropyl)methyl)-1H-1,2,3-triazol-4-yl)phenyl)methanone] |

Second part, the molecule before the results:

| Compound | IC50 |
| --- | --- |
| O=C(C#Cc1ccccc1)N1CCN(c2nc3nc(Cl)ccc3o2)CC1 [Example 102, 1-(4-(5-chlorooxazolo[4,5-b]pyridin-2-yl)piperazin-1-yl)-3-phenylprop-2-yn-1-one] | 0.932 µM |
| O=C(C#Cc1ccc(Cl)cc1)N1CCN(c2nc3nc(Cl)ccc3o2)CC1 [Example 103, 1-(4-(5-chlorooxazolo[4,5-b]pyridin-2-yl)piperazin-1-yl)-3-(4-chlorophenyl)prop-2-yn-1-one] | 0.452 µM |
| C#Cc1ccc(C(=O)N2CCN(c3nc4nc(Cl)ccc4o3)CC2)cc1OC [Example 104, (4-(5-chlorooxazolo[4,5-b]pyridin-2-yl)piperazin-1-yl)(4-ethynyl-3-methoxyphenyl)methanone] | 0.109 µM |
| CC(C)(C)n1cnc(-c2ccc(C(=O)N3CCN(c4nc5nc(Cl)ccc5o4)CC3)cc2F)n1 [Example 107, [4-(1-tert-butyl-1,2,4-triazol-3-yl)-3-fluorophenyl]-[4-(5-chloro-[1,3]oxazolo[4,5-b]pyridin-2-yl)piperazin-1-yl]methanone] | 0.015 µM |
| Cc1ccc2oc(N3CCN(C(=O)c4ccc(-c5ncn(C(C)(C)C)n5)c(C(F)(F)F)c4)CC3)nc2n1 [Example 111, [4-(1-tert-butyl-1,2,4-triazol-3-yl)-3-(trifluoromethyl)phenyl]-[4-(5-methyl-[1,3]oxazolo[4,5-b]pyridin-2-yl)piperazin-1-yl]methanone] | 0.028 µM |
| CC(C)(C)n1cnc(-c2ccc(C(=O)N3CCN(c4nc5nc(Cl)ccc5o4)CC3)cc2C(F)(F)F)n1 [Example 112, [4-(1-tert-butyl-1,2,4-triazol-3-yl)-3-(trifluoromethyl)phenyl]-[4-(5-chloro-[1,3]oxazolo[4,5-b]pyridin-2-yl)piperazin-1-yl]methanone] | 0.012 µM |
| CC(C)(C)c1nnc(-c2ccc(C(=O)N3CCN(c4nc5nc(Cl)ccc5o4)CC3)cc2Cl)o1 [Example 115, (4-(5-(tert-butyl)-1,3,4-oxadiazol-2-yl)-3-chlorophenyl)(4-(5-chlorooxazolo[4,5-b]pyridin-2-yl)piperazin-1-yl)methanone] | 0.008 µM |
| Cc1ccc2oc(N3CCN(C(=O)c4ccc(-c5nnc(C(C)(C)C)o5)c(Cl)c4)CC3)nc2n1 [Example 117, (4-(5-(tert-butyl)-1,3,4-oxadiazol-2-yl)-3-chlorophenyl)(4-(5-methyloxazolo[4,5-b]pyridin-2-yl)piperazin-1-yl)methanone] | 0.034 µM |
| Cc1ccc2oc(N3CCN(C(=O)c4cc(O)c(-c5nnc(C(C)(C)C)o5)c(F)c4)CC3)nc2n1 [Example 118, (4-(5-(tert-butyl)-1,3,4-oxadiazol-2-yl)-3-fluoro-5-hydroxyphenyl)(4-(5-methyloxazolo[4,5-b]pyridin-2-yl)piperazin-1-yl)methanone] | 0.368 µM |
| Cc1cc(C(=O)N2CCN(c3nc4nc(Cl)ccc4o3)CC2)cnc1-n1cc(C(C)(C)C)cn1 [Example 120, [6-(4-tert-butylpyrazol-1-yl)-5-methylpyridin-3-yl]-[4-(5-chloro-[1,3]oxazolo[4,5-b]pyridin-2-yl)piperazin-1-yl]methanone] | 0.004 µM |
| Cc1ccc2oc(N3CCN(C(=O)c4ccc(-c5nnc(C(C)(C)C)o5)c(C(F)(F)F)c4)CC3)nc2n1 [Example 121, [4-(5-tert-butyl-1,3,4-oxadiazol-2-yl)-3-(trifluoromethyl)phenyl]-[4-(5-methyloxazolo[4,5-b]pyridin-2-yl)piperazin-1-yl]methanone] | 0.013 µM |
| CC(C)(C)c1nnc(-c2ccc(C(=O)N3CCN(c4nc5nc(Cl)ccc5o4)CC3)cc2C(F)(F)F)o1 [Example 122, [4-(5-tert-butyl-1,3,4-oxadiazol-2-yl)-3-(trifluoromethyl)phenyl]-[4-(5-chlorooxazolo[4,5-b]pyridin-2-yl)piperazin-1-yl]methanone] | 0.003 µM |
| COc1cc(C(=O)N2CCN(c3nc4nc(C)ccc4o3)CC2)ccc1-c1ncn(C(C)(C)C)n1 [Example 123, (4-(1-(tert-butyl)-1H-1,2,4-triazol-3-yl)-3-methoxyphenyl)(4-(5-methyloxazolo[4,5-b]pyridin-2-yl)piperazin-1-yl)methanone] | 0.174 µM |
| COc1cc(C(=O)N2CCN(c3nc4nc(Cl)ccc4o3)CC2)ccc1-c1ncn(C(C)(C)C)n1 [Example 124, (4-(1-(tert-butyl)-1H-1,2,4-triazol-3-yl)-3-methoxyphenyl)(4-(5-chlorooxazolo[4,5-b]pyridin-2-yl)piperazin-1-yl)methanone] | 0.081 µM |
